From ChEMBL document CHEMBL1201862, “PubChem BioAssay data set” (2004)
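Each compound was tested at five concentrations against cells in 96-well plates for 48 hours. Abbreviation: GI50, concentration required for 50% inhibition of growth.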 The source made the active and inactive calls. Cut-off read from the data, not from the text of the source: active = GI50 up to about 1.1 µM and inactive = higher.

How the values were obtained:
Assay in all cases: NCI anticancer screen, dose series, 48 h
[1] = tested on: KM-20L2
[2] = tested on: HCT-15
[3] = tested on: OVCAR-4
[4] = tested on: SF-268
[5] = tested on: SF-295
[6] = tested on: SR
[7] = tested on: NCI-H460
[8] = tested on: 786-0
[9] = tested on: COLO 205
[10] = tested on: NCI-H23
[11] = tested on: SK-MEL-2
[12] = tested on: DMS-114
[13] = tested on: KM12
[14] = tested on: SK-MEL-5
[15] = tested on: IGROV-1
[16] = tested on: SW-620
[17] = tested on: Malme-3M
[18] = tested on: A549
[19] = tested on: HT-29
[20] = tested on: UACC-257
[21] = tested on: HOP-62
[22] = tested on: OVCAR-8
[23] = tested on: DMS-273
[24] = tested on: UACC-62
[25] = tested on: SF-539
[26] = tested on: HCT-116
[27] = tested on: LOX IMVI
[28] = tested on: NCI-H226
[29] = tested on: OVCAR-5
[30] = tested on: MOLT-4
[31] = tested on: SK-MEL-28
[32] = tested on: CCRF-CEM
[33] = tested on: UO-31
[34] = tested on: M19-MEL
[35] = tested on: RXF 393
[36] = tested on: HOP-92
[37] = tested on: RPMI-8226
[38] = tested on: SK-OV-3
[39] = tested on: K562
[40] = tested on: OVCAR-3
[41] = tested on: DLD-1
[42] = tested on: SNB-75
[43] = tested on: NCI-H522
[44] = tested on: HL-60
[45] = tested on: ACHN
[46] = tested on: HOP-18
[47] = tested on: SN12C
[48] = tested on: TK-10
[49] = tested on: U-251
[50] = tested on: CAKI-1
[51] = tested on: EKVX
[52] = tested on: HCC 2998
[53] = tested on: LXFL 529
[54] = tested on: SNB-19
[55] = tested on: M14
[56] = tested on: SNB-78
[57] = tested on: A498
[58] = tested on: PC-3
[59] = tested on: NCI/ADR-RES
[60] = tested on: DU-145
[61] = tested on: MDA-MB-231
[62] = tested on: T47D
[63] = tested on: BT-549
[64] = tested on: MDA-N
[65] = tested on: MCF7
[66] = tested on: MDA-MB-435
[67] = tested on: Hs-578T

## CC(C)SC1CC2C(CC1(C)O)C2(C)C (centres undefined)
[1]
  GI50: 4.3 µM (inactive)

## Cc1cc(O)nc(NNC(C#N)c2ccccc2O)n1 (centres undefined)
[2]
  GI50: 11.9 µM
[3]
  GI50: 15.5 µM (inactive)
[4]
  GI50: 13 µM (inactive)
[5]
  GI50: 38.4 µM (inactive)
[6]
  GI50: 4.3 µM (inactive)
[7]
  GI50: 10.5 µM (inactive)
[8]
  GI50: 19.8 µM (inactive)
[9]
  GI50: 31 µM (inactive)
[10]
  GI50: 22.7 µM (inactive)
[11]
  GI50: 66.8 µM (inactive)
[12]
  GI50: 19.8 µM (inactive)
[13]
  GI50: 35.6 µM (inactive)
[14]
  GI50: 19.9 µM (inactive)
[15]
  GI50: 21 µM (inactive)
[16]
  GI50: 44.6 µM (inactive)
[17]
  GI50: 35.7 µM (inactive)
[18]
  GI50: 16.8 µM (inactive)
[19]
  GI50: 30.2 µM (inactive)
[20]
  GI50: 39 µM (inactive)
[21]
  GI50: 31.3 µM (inactive)
[22]
  GI50: 35.7 µM (inactive)
[23]
  GI50: 5.27 µM (inactive)
[24]
  GI50: 21.7 µM (inactive)
[25]
  GI50: 10.4 µM (inactive)
[26]
  GI50: 19.3 µM (inactive)
[27]
  GI50: 17.6 µM (inactive)
[28]
  GI50: 31.1 µM (inactive)
[29]
  GI50: 58.6 µM (inactive)
[30]
  GI50: 24.6 µM (inactive)
[31]
  GI50: 36.3 µM (inactive)
[32]
  GI50: 13.6 µM (inactive)
[33]
  GI50: 18.5 µM (inactive)
[34]
  GI50: 17.8 µM (inactive)
[35]
  GI50: > 100 µM (inactive)
[36]
  GI50: 75.5 µM (inactive)
[1]
  GI50: 13.1 µM (inactive)
[37]
  GI50: 22 µM (inactive)
[38]
  GI50: 39.4 µM (inactive)
[39]
  GI50: 41.7 µM (inactive)
[40]
  GI50: 10.8 µM (inactive)
[41]
  GI50: 18.4 µM (inactive)
[42]
  GI50: 31.5 µM (inactive)
[43]
  GI50: 41.4 µM (inactive)
[44]
  GI50: 3.72 µM (inactive)
[45]
  GI50: 16.6 µM (inactive)
[46]
  GI50: 23.3 µM (inactive)
[47]
  GI50: 73.6 µM (inactive)
[48]
  GI50: 61 µM (inactive)
[49]
  GI50: 15.2 µM (inactive)
[50]
  GI50: 30.8 µM (inactive)

## COc1cc2ccc3c4cc(OC)c(OC(C)C)cc4c[n+](C)c3c2cc1OC
[2]
  GI50: > 100 µM
[3]
  GI50: 64 µM (inactive)
[4]
  GI50: 32.7 µM (inactive)
[5]
  GI50: > 100 µM (inactive)
[6]
  GI50: 47.8 µM (inactive)
[7]
  GI50: > 100 µM (inactive)
[8]
  GI50: 99.3 µM (inactive)
[51]
  GI50: > 100 µM (inactive)
[9]
  GI50: 14.5 µM (inactive)
[52]
  GI50: 44.5 µM (inactive)
[10]
  GI50: 95.7 µM (inactive)
[11]
  GI50: 30.8 µM (inactive)
[12]
  GI50: 9.64 µM (inactive)
[13]
  GI50: > 100 µM (inactive)
[14]
  GI50: 42 µM (inactive)
[15]
  GI50: 74.5 µM (inactive)
[16]
  GI50: 71.6 µM (inactive)
[17]
  GI50: 48.9 µM (inactive)
[53]
  GI50: 14.2 µM (inactive)
[18]
  GI50: > 100 µM (inactive)
[19]
  GI50: > 100 µM (inactive)
[20]
  GI50: 28.2 µM (inactive)
[21]
  GI50: > 100 µM (inactive)
[22]
  GI50: 39.2 µM (inactive)
[24]
  GI50: 55.2 µM (inactive)
[25]
  GI50: 40.4 µM (inactive)
[26]
  GI50: > 100 µM (inactive)
[27]
  GI50: 54.3 µM (inactive)
[28]
  GI50: 71.3 µM (inactive)
[29]
  GI50: > 100 µM (inactive)
[30]
  GI50: > 100 µM (inactive)
[31]
  GI50: 33.6 µM (inactive)
[32]
  GI50: 49.1 µM (inactive)
[33]
  GI50: > 100 µM (inactive)
[54]
  GI50: > 100 µM (inactive)
[34]
  GI50: 29 µM (inactive)
[35]
  GI50: 27.7 µM (inactive)
[36]
  GI50: 36.7 µM (inactive)
[55]
  GI50: 64.6 µM (inactive)
[1]
  GI50: > 100 µM (inactive)
[37]
  GI50: > 100 µM (inactive)
[38]
  GI50: > 100 µM (inactive)
[39]
  GI50: 22.7 µM (inactive)
[40]
  GI50: 19.7 µM (inactive)
[41]
  GI50: > 100 µM (inactive)
[42]
  GI50: 34 µM (inactive)
[43]
  GI50: 17.4 µM (inactive)
[44]
  GI50: 35.1 µM (inactive)
[45]
  GI50: > 100 µM (inactive)
[46]
  GI50: 23.4 µM (inactive)
[47]
  GI50: 31.5 µM (inactive)
[48]
  GI50: > 100 µM (inactive)
[49]
  GI50: 31.3 µM (inactive)
[50]
  GI50: > 100 µM (inactive)

## Cc1c(N2CCN(C)CC2)nc2ccc(Cl)cc2c1-c1ccccc1
[2]
  GI50: 18.9 µM
[3]
  GI50: 17.7 µM (inactive)
[4]
  GI50: 29.4 µM (inactive)
[5]
  GI50: 17.4 µM (inactive)
[6]
  GI50: 17.9 µM (inactive)
[56]
  GI50: 16.3 µM (inactive)
[7]
  GI50: 17.5 µM (inactive)
[8]
  GI50: 14.4 µM (inactive)
[51]
  GI50: 17.7 µM (inactive)
[9]
  GI50: 16.1 µM (inactive)
[52]
  GI50: > 10 µM (inactive)
[10]
  GI50: 23.1 µM (inactive)
[11]
  GI50: 17.3 µM (inactive)
[12]
  GI50: 15.8 µM (inactive)
[13]
  GI50: 12.4 µM (inactive)
[14]
  GI50: 15.4 µM (inactive)
[16]
  GI50: 16.8 µM (inactive)
[17]
  GI50: 16.9 µM (inactive)
[53]
  GI50: 16.9 µM (inactive)
[18]
  GI50: 18.4 µM (inactive)
[19]
  GI50: 14.3 µM (inactive)
[20]
  GI50: 17.9 µM (inactive)
[21]
  GI50: 18.2 µM (inactive)
[22]
  GI50: 16.6 µM (inactive)
[23]
  GI50: 17 µM (inactive)
[24]
  GI50: 15.7 µM (inactive)
[25]
  GI50: 17.6 µM (inactive)
[26]
  GI50: 17.8 µM (inactive)
[27]
  GI50: 14.7 µM (inactive)
[30]
  GI50: > 10 µM (inactive)
[31]
  GI50: 18 µM (inactive)
[32]
  GI50: 17.5 µM (inactive)
[33]
  GI50: 16.5 µM (inactive)
[54]
  GI50: 25.2 µM (inactive)
[35]
  GI50: 15.9 µM (inactive)
[55]
  GI50: 18.5 µM (inactive)
[1]
  GI50: 15.7 µM (inactive)
[37]
  GI50: 18.9 µM (inactive)
[38]
  GI50: 47.4 µM (inactive)
[39]
  GI50: 14.5 µM (inactive)
[40]
  GI50: 24.3 µM (inactive)
[42]
  GI50: 16.7 µM (inactive)
[57]
  GI50: 12.2 µM (inactive)
[43]
  GI50: 19.9 µM (inactive)
[44]
  GI50: 12.7 µM (inactive)
[45]
  GI50: 22 µM (inactive)
[47]
  GI50: 14.7 µM (inactive)
[48]
  GI50: > 10 µM (inactive)
[49]
  GI50: 17.3 µM (inactive)
[50]
  GI50: 17.3 µM (inactive)

## CCc1nc(N)nc(N)c1-c1ccc(Cl)cc1 [PYRIMETHAMINE]
[2]
  GI50: 3.94 µM
[3]
  GI50: 41.6 µM (inactive)
[4]
  GI50: 9.77 µM (inactive)
[5]
  GI50: 4.44 µM (inactive)
[58]
  GI50: 6.5 µM (inactive)
[6]
  GI50: 4.24 µM (inactive)
[7]
  GI50: 2.79 µM (inactive)
[8]
  GI50: 4.59 µM (inactive)
[51]
  GI50: 7.55 µM (inactive)
[9]
  GI50: 18.9 µM (inactive)
[59]
  GI50: 30.9 µM (inactive)
[52]
  GI50: 6.25 µM (inactive)
[10]
  GI50: 5.79 µM (inactive)
[11]
  GI50: 38.4 µM (inactive)
[13]
  GI50: 11.6 µM (inactive)
[14]
  GI50: 2.48 µM (inactive)
[15]
  GI50: 9.86 µM (inactive)
[16]
  GI50: 5.61 µM (inactive)
[17]
  GI50: 18.2 µM (inactive)
[18]
  GI50: 1.47 µM (inactive)
[19]
  GI50: 4.25 µM (inactive)
[20]
  GI50: 12.5 µM (inactive)
[21]
  GI50: 13.4 µM (inactive)
[60]
  GI50: 18.7 µM (inactive)
[22]
  GI50: 5.79 µM (inactive)
[24]
  GI50: 4.72 µM (inactive)
[25]
  GI50: 20.7 µM (inactive)
[26]
  GI50: 6.14 µM (inactive)
[27]
  GI50: 6.19 µM (inactive)
[28]
  GI50: 42.6 µM (inactive)
[29]
  GI50: > 60 µM (inactive)
[30]
  GI50: 4.84 µM (inactive)
[31]
  GI50: > 66.7 µM (inactive)
[32]
  GI50: 3.33 µM (inactive)
[33]
  GI50: 16.4 µM (inactive)
[61]
  GI50: 9.25 µM (inactive)
[54]
  GI50: 32.8 µM (inactive)
[35]
  GI50: > 76.4 µM (inactive)
[62]
  GI50: 32.7 µM (inactive)
[36]
  GI50: 21.3 µM (inactive)
[55]
  GI50: 5.71 µM (inactive)
[37]
  GI50: 34.6 µM (inactive)
[38]
  GI50: 74.3 µM (inactive)
[63]
  GI50: 25.8 µM (inactive)
[39]
  GI50: 0.542 µM (active)
[64]
  GI50: 4.83 µM (inactive)
[40]
  GI50: 32 µM (inactive)
[42]
  GI50: 44.9 µM (inactive)
[57]
  GI50: 13.3 µM (inactive)
[43]
  GI50: 22.5 µM (inactive)
[65]
  GI50: 11.1 µM (inactive)
[66]
  GI50: 8.36 µM (inactive)
[67]
  GI50: > 58.2 µM (inactive)
[44]
  GI50: 2.38 µM (inactive)
[45]
  GI50: 5.11 µM (inactive)
[47]
  GI50: 3.33 µM (inactive)
[48]
  GI50: 21.7 µM (inactive)
[49]
  GI50: 9.75 µM (inactive)
[50]
  GI50: 71.9 µM (inactive)
